Test [1] deals with T1, 6-phosphogluconolactonase (Trypanosoma brucei, UniProt Q9GRG6).
T1 sequence (Q9GRG6 whole entry): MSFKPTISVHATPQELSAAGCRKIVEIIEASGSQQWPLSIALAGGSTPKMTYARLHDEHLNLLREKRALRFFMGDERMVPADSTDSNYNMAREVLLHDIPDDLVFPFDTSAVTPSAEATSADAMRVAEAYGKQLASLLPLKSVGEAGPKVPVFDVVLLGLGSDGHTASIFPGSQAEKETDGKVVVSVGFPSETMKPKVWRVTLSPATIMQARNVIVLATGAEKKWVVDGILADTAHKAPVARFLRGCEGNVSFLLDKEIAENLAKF
Description: Binding affinity to Trypanosoma brucei 6-phospho-gluconalactonase by NMR analysis.

A short description of test [2]: Binding affinity to mouse major urinary protein by NMR analysis.
A short description of test [3]: Binding affinity to hen egg-white lysozyme by NMR analysis. Also on record: species or system Gallus gallus.
In the next test the target is Galectin-3 (Homo sapiens, UniProt P17931). The test can be described thus: Binding affinity to galectin-3 (unknown origin).
Galectin-3, sequence (P17931 whole entry): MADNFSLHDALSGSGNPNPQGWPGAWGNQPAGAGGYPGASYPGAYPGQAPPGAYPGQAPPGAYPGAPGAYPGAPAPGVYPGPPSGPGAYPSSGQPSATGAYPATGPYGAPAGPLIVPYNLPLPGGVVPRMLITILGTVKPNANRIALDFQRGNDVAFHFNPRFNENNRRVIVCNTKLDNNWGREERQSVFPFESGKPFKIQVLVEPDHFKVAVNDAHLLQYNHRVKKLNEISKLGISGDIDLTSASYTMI
Test [4] is described as follows: Binding affinity to oxalocrotonate tautomerase (unknown origin) by NMR analysis.
Test [5] can be described thus: Binding affinity to ketosteroid isomerase (unknown origin) by NMR analysis.
Test [6] is described as follows: Binding affinity to Escherichia coli glucose/galactose binding protein by NMR analysis.
Test [7] in a line: Binding affinity to quail siderocalin Q83 by NMR analysis. On the set-up: species or system Galliformes.
Test [8] can be described thus: Binding affinity to Escherichia coli ribose binding protein by NMR analysis.
The target in test [9] is T2, Thiopurine S-methyltransferase (Homo sapiens, UniProt P51580).
T2 sequence (P51580 whole entry): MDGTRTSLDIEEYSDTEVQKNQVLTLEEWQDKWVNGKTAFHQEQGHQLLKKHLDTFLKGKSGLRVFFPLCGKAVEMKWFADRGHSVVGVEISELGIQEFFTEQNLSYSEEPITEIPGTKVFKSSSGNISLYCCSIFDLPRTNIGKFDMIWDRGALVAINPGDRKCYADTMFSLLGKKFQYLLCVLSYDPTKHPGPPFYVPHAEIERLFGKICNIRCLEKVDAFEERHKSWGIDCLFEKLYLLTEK
The test can be described thus: Binding affinity to thiopurine methyltransferase (unknown origin) by NMR analysis.

On to `O=C(O)[C@H](O)[C@@H](O)[C@H](O)[C@H](O)COP(=O)(O)O`, for which the Kd in test [1] turned out to be 10 µM.
In the case of `c1ccc(Nc2cccc3ccccc23)cc1`, binding in test [2] was put at a Kd of 0.032 µM.
As for `N[C@H]1[C@H](O[C@H]2[C@H](O)[C@@H](N)[C@H](O[C@H]3[C@H](O)[C@@H](N)C(O)O[C@@H]3CO)O[C@@H]2CO)O[C@H](CO)[C@@H](O)[C@@H]1O` (stereo partly drawn), the Kd in [3] is 14 µM.
Take `CC(=O)N[C@H]1C(O)O[C@H](CO)[C@@H](O[C@@H]2O[C@H](CO)[C@H](O)[C@H](NC(=O)c3ccccc3)[C@H]2O)[C@@H]1O` (stereo partly drawn): binding at Galectin-3 was put at a Kd of 18.2 µM.
The same measure, in the same setting: for `COc1c(F)c(F)c(C(=O)N[C@H]2[C@@H](O)[C@@H](CO)O[C@@H](O[C@H]3[C@H](O)[C@@H](NC(C)=O)C(O)O[C@@H]3CO)[C@@H]2O)c(F)c1F` (stereo partly drawn) the value was 3.3 µM.
As for `CCC(C)C1=NCCS1` (stereo not drawn), the affinity in test [2], expressed as Kd, was 0.9 µM.
In [4], `CC1(C)SCN(C(=O)[C@@H](CS)Cc2ccccc2)[C@H]1C(=O)O` came in with a Kd of 590 µM.
`C[C@]12CC[C@H]3[C@@H](CCC4=CC(=O)CC[C@@H]43)[C@@H]1CC[C@@H]2O` gave a Kd in test [5] of 5.5 µM.
In turn, `COc1nccnc1CC(C)C` yielded a Kd in test [2] of 0.3 µM.
Turning to `OC[C@H]1OC(O)[C@H](O)[C@@H](O)[C@@H]1O` (stereo partly drawn) [DEXTROSE], in [6], the equilibrium dissociation constant (Kd) was 0.29 µM.
For the compound `O=C(N[C@H]1COC(=O)[C@@H](NC(=O)c2cccc(O)c2O)COC(=O)[C@@H](NC(=O)c2cccc(O)c2O)COC1=O)c1cccc(O)c1O` [ENTEROBACTIN], the affinity in test [7], expressed as Kd, was 0.0005 µM.
In test [8], `O[C@@H]1[C@H](O)[C@H](O)CO[C@H]1O` [RIBOSE (PYRANOSE)] yielded a Kd of 0.17 µM.
The compound `Nc1ncnc2c1ncn2[C@@H]1O[C@H](C[C@@H](N)CC[C@H](N)C(=O)O)[C@@H](O)[C@H]1O` [SINEFUNGIN] registered a dissociation constant (Kd) in test [9] of 10 µM.

For orientation: Kd means the equilibrium constant for the complex coming apart. Low readings indicate tighter binding, high ones weaker binding.

For the origin of these results see ChEMBL document CHEMBL3351755, “Elements and modulation of functional dynamics” (J Med Chem, 2014).
